Tested on: HCV 1b-377-neo replicon cells
Assay: HCV replicon assay, HCV 1b-377-neo replicon cells (1b FRET)
Assay type: cell-based, Hepatitis C virus genotype 1b
Details: Hepatitis C virus, HCV 1b-377-neo replicon cells; HCV 1b genotype; read-out: EC50 range against HCV 1b (Table 2, Range)
Summary of the method: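 FRET-based replicon assay in HCV 1b-377-neo cells, including a comparison line carrying the NS5A Y2065H mutation that confers resistance to a reference compound.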

CCN(CC)[C@@H](C(=O)N1CCC[C@H]1c1ncc(-c2ccc(-c3ccc(-c4cnc([C@@H]5CCCN5C(=O)[C@H](NC5=NCCN5)C(C)C)[nH]4)cc3)cc2)[nH]1)c1ccccc1 [cj-11p, N-((1R)-1-(((2S)-2-(5-(4′-(2-((2S)-1-((2R)-2-(diethylamino)-2-phenylacetyl)-2-pyrrolidinyl)-1H-imidazol-5-yl)-4-biphenylyl)-1H-imidazol-2-yl)-1-pyrrolidinyl)carbonyl)-2-methylpropyl)-4,5-dihydro-1H-imidazol-2-amine]
EC50: 0.001 to 0.999 nM

COC(=O)N[C@H](C(=O)N1CCC[C@H]1c1ncc(-c2ccc(-c3ccc(-c4cnc([C@@H]5CCCN5C(=O)[C@@H](NC5=NCCS5)C(C)C)[nH]4)cc3)cc2)[nH]1)C(C)C [cj-15c, methyl ((1S)-1-(((2S)-2-(5-(4′-(2-((2S)-1-(N-(4,5-dihydro-1,3-thiazol-2-yl)-L-valyl)-2-pyrrolidinyl)-1H-imidazol-5-yl)-4-biphenylyl)-1H-imidazol-2-yl)-1-pyrrolidinyl)carbonyl)-2-methylpropyl)carbamate]
EC50: 0.001 to 0.999 nM

COC(=O)N[C@H](C(=O)N1CCC[C@H]1c1ncc(-c2ccc(-c3ccc(-c4cnc([C@@H]5CCCN5C(=O)[C@@H](Nc5ccncn5)C(C)C)[nH]4)cc3)cc2)[nH]1)C(C)C [cj-15d, methyl ((1S)-2-methyl-1-(((2S)-2-(5-(4′-(2-((2S)-1-(N-4-pyrimidinyl-L-valyl)-2-pyrrolidinyl)-1H-imidazol-5-yl)-4-biphenylyl)-1H-imidazol-2-yl)-1-pyrrolidinyl)carbonyl)propyl)carbamate]
EC50: 0.001 to 0.999 nM

COC(=O)N[C@H](C(=O)N1CCC[C@H]1c1ncc(-c2ccc(-c3ccc(-c4cnc([C@@H]5CCCN5C(=O)[C@@H](Nc5noc(N)n5)C(C)C)[nH]4)cc3)cc2)[nH]1)C(C)C [cj-16, methyl ((1S)-1-(((2S)-2-(5-(4′-(2-((2S)-1-(N-(5-amino-1,2,4-oxadiazol-3-yl)-L-valyl)-2-pyrrolidinyl)-1H-imidazol-5-yl)-4-biphenylyl)-1H-imidazol-2-yl)-1-pyrrolidinyl)carbonyl)-2-methylpropyl)carbamate]
EC50: 0.001 to 0.999 nM

COC(=O)N[C@H](C(=O)N1CCC[C@H]1c1ncc(-c2ccc(-c3ccc(-c4cnc([C@@H]5CCCN5C(=O)[C@@H](NC(=NC#N)N(C)C)C(C)C)[nH]4)cc3)cc2)[nH]1)C(C)C [cj-17, methyl ((1S)-1-(((2S)-2-(5-(4′-(2-((2S)-1-(N-(cyano(dimethyl)carbamimidoyl)-L-valyl)-2-pyrrolidinyl)-1H-imidazol-5-yl)-4-biphenylyl)-1H-imidazol-2-yl)-1-pyrrolidinyl)carbonyl)-2-methylpropyl)carbamate]
EC50: 0.001 to 0.999 nM

COC(=O)N[C@H](C(=O)N1CCC[C@H]1c1ncc(-c2ccc(-c3ccc(-c4cnc([C@@H]5CCCN5C(=O)[C@@H](Nc5cccnc5)C(C)C)[nH]4)cc3)cc2)[nH]1)C(C)C [cj-20, methyl ((1S)-2-methyl-1-(((2S)-2-(5-(4′-(2-((2S)-1-(N-3-pyridinyl-L-valyl)-2-pyrrolidinyl)-1H-imidazol-5-yl)-4-biphenylyl)-1H-imidazol-2-yl)-1-pyrrolidinyl)carbonyl)propyl)carbamate]
EC50: 0.001 to 0.999 nM

COC(=O)N[C@@H](C)C(=O)N1CCC[C@H]1c1ncc(-c2ccc(-c3ccc(-c4cnc([C@@H]5CCCN5C(=O)[C@@H](Nc5cccnc5)C(C)C)[nH]4)cc3)cc2)[nH]1 [cj-20a, methyl ((1S)-1-methyl-2-oxo-2-((2S)-2-(5-(4′-(2-((2S)-1-(N-3-pyridinyl-L-valyl)-2-pyrrolidinyl)-1H-imidazol-5-yl)-4-biphenylyl)-1H-imidazol-2-yl)-1-pyrrolidinyl)ethyl)carbamate]
EC50: 0.001 to 0.999 nM

COC(=O)N[C@H](C(=O)N1CCC[C@H]1c1ncc(-c2ccc(-c3ccc(-c4cnc([C@@H]5CCCN5C(=O)[C@@H](Nc5cccnc5)C(C)C)[nH]4)cc3)cc2)[nH]1)[C@@H](C)OC [cj-20b, methyl ((1S,2R)-2-methoxy-1-(((2S)-2-(5-(4′-(2-((2S)-1-(N-3-pyridinyl-L-valyl)-2-pyrrolidinyl)-1H-imidazol-5-yl)-4-biphenylyl)-1H-imidazol-2-yl)-1-pyrrolidinyl)carbonyl)propyl)carbamate]
EC50: 0.001 to 0.999 nM

CCN(CC)[C@@H](C(=O)N1CCC[C@H]1c1ncc(-c2ccc(-c3ccc(-c4cnc([C@@H]5CCCN5C(=O)[C@@H](Nc5cccnc5)C(C)C)[nH]4)cc3)cc2)[nH]1)c1ccccc1 [cj-20c, N-((1S)-1-(((2S)-2-(5-(4′-(2-((2S)-1-((2R)-2-(diethylamino)-2-phenylacetyl)-2-pyrrolidinyl)-1H-imidazol-5-yl)-4-biphenylyl)-1H-imidazol-2-yl)-1-pyrrolidinyl)carbonyl)-2-methylpropyl)-3-pyridinamine]
EC50: 0.001 to 0.999 nM

COC(=O)N[C@H](C(=O)N1CCC[C@H]1c1ncc(-c2ccc(-c3ccc(-c4cnc([C@@H]5CCCN5C(=O)[C@@H](Nc5cncnc5)C(C)C)[nH]4)cc3)cc2)[nH]1)C(C)C [cj-20d, methyl ((1S)-2-methyl-1-(((2S)-2-(5-(4′-(2-((2S)-1-(N-5-pyrimidinyl-L-valyl)-2-pyrrolidinyl)-1H-imidazol-5-yl)-4-biphenylyl)-1H-imidazol-2-yl)-1-pyrrolidinyl)carbonyl)propyl)carbamate]
EC50: 0.001 to 0.999 nM

CCN(CC)[C@@H](C(=O)N1CCC[C@H]1c1ncc(-c2ccc(-c3ccc(-c4cnc([C@@H]5CCCN5C(=O)[C@H](Cc5c[nH]nn5)NC(=O)OC)[nH]4)cc3)cc2)[nH]1)c1ccccc1 [cj-32, methyl ((1S)-2-((2S)-2-(5-(4′-(2-((2S)-1-((2R)-2-(diethylamino)-2-phenylacetyl)-2-pyrrolidinyl)-1H-imidazol-5-yl)-4-biphenylyl)-1H-imidazol-2-yl)-1-pyrrolidinyl)-2-oxo-1-(1H-1,2,3-triazol-4-ylmethyl)ethyl)carbamate]
EC50: 0.001 to 0.999 nM

COC(=O)N[C@@H](C)C(=O)N1CCC[C@H]1c1ncc(-c2ccc(-c3ccc(-c4cnc([C@@H]5CCCN5C(=O)[C@H](Cc5c[nH]nn5)NC(=O)OC)[nH]4)cc3)cc2)[nH]1 [cj-33, methyl ((1S)-2-((2S)-2-(5-(4′-(2-((2S)-1-(N-(methoxycarbonyl)-L-alanyl)-2-pyrrolidinyl)-1H-imidazol-5-yl)-4-biphenylyl)-1H-imidazol-2-yl)-1-pyrrolidinyl)-2-oxo-1-(1H-1,2,3-triazol-4-ylmethyl)ethyl)carbamate]
EC50: 0.001 to 0.999 nM

COC(=O)N[C@@H](Cc1c[nH]nn1)C(=O)N1CCC[C@H]1c1ncc(-c2ccc(-c3ccc(-c4cnc([C@@H]5CCCN5C(=O)[C@@H](NC(=O)OC)C(C)C)[nH]4)cc3)cc2)[nH]1 [cj-34, methyl ((1S)-1-(((2S)-2-(5-(4′-(2-((2S)-1-((2S)-2-((methoxycarbonyl)amino)-3-(1H-1,2,3-triazol-4-yl)propanoyl)-2-pyrrolidinyl)-1H-imidazol-5-yl)-4-biphenylyl)-1H-imidazol-2-yl)-1-pyrrolidinyl)carbonyl)-2-methylpropyl)carbamate]
EC50: 0.001 to 0.999 nM

COC(=O)N[C@@H](Cc1c[nH]nn1)C(=O)N1CCC[C@H]1c1ncc(-c2ccc(-c3ccc(-c4cnc([C@@H]5CCCN5C(=O)[C@@H](NC(=O)OC)[C@@H](C)OC)[nH]4)cc3)cc2)[nH]1 [cj-35, methyl ((1S)-2-((2S)-2-(5-(4′-(2-((2S)-1-((2S,3R)-3-methoxy-2-((methoxycarbonyl)amino)butanoyl)-2-pyrrolidinyl)-1H-imidazol-5-yl)-4-biphenylyl)-1H-imidazol-2-yl)-1-pyrrolidinyl)-2-oxo-1-(1H-1,2,3-triazol-4-ylmethyl)ethyl)carbamate]
EC50: 1 to 99 nM

CCN(CC)[C@@H](C(=O)N1CCC[C@H]1c1ncc(-c2ccc(-c3ccc(-c4cnc([C@@H]5CCCN5C(=O)[C@H](Cn5cccn5)NC(=O)OC)[nH]4)cc3)cc2)[nH]1)c1ccccc1 [cj-36, methyl ((1S)-2-((2S)-2-(5-(4′-(2-((2S)-1-((2R)-2-(diethylamino)-2-phenylacetyl)-2-pyrrolidinyl)-1H-imidazol-5-yl)-4-biphenylyl)-1H-imidazol-2-yl)-1-pyrrolidinyl)-2-oxo-1-(1H-pyrazol-1-ylmethyl)ethyl)carbamate]
EC50: 0.001 to 0.999 nM

COC(=O)N[C@@H](C)C(=O)N1CCC[C@H]1c1ncc(-c2ccc(-c3ccc(-c4cnc([C@@H]5CCCN5C(=O)[C@H](Cn5cccn5)NC(=O)OC)[nH]4)cc3)cc2)[nH]1 [cj-37, methyl ((1S)-2-((2S)-2-(5-(4′-(2-((2S)-1-(N-(methoxycarbonyl)-L-alanyl)-2-pyrrolidinyl)-1H-imidazol-5-yl)-4-biphenylyl)-1H-imidazol-2-yl)-1-pyrrolidinyl)-2-oxo-1-(1H-pyrazol-1-ylmethyl)ethyl)carbamate]
EC50: 0.001 to 0.999 nM

COC(=O)N[C@@H](Cn1cccn1)C(=O)N1CCC[C@H]1c1ncc(-c2ccc(-c3ccc(-c4cnc([C@@H]5CCCN5C(=O)[C@@H](NC(=O)OC)C(C)C)[nH]4)cc3)cc2)[nH]1 [cj-38, methyl ((1S)-1-(((2S)-2-(5-(4′-(2-((2S)-1-((2S)-2-((methoxycarbonyl)amino)-3-(1H-pyrazol-1-yl)propanoyl)-2-pyrrolidinyl)-1H-imidazol-5-yl)-4-biphenylyl)-1H-imidazol-2-yl)-1-pyrrolidinyl)carbonyl)-2-methylpropyl)carbamate]
EC50: 0.001 to 0.999 nM

COC(=O)N[C@@H](Cn1cccn1)C(=O)N1CCC[C@H]1c1ncc(-c2ccc(-c3ccc(-c4cnc([C@@H]5CCCN5C(=O)[C@@H](NC(=O)OC)[C@@H](C)OC)[nH]4)cc3)cc2)[nH]1 [cj-39, methyl ((1S)-2-((2S)-2-(5-(4′-(2-((2S)-1-(N-(methoxycarbonyl)-O-methyl-L-threonyl)-2-pyrrolidinyl)-1H-imidazol-5-yl)-4-biphenylyl)-1H-imidazol-2-yl)-1-pyrrolidinyl)-2-oxo-1-(1H-pyrazol-1-ylmethyl)ethyl)carbamate]
EC50: 0.001 to 0.999 nM

— patent US8574563B2 (Bristol-Myers Squibb Company, priority 2006, dated 2013)
